Assays:
DENV-2 (strain TSV01) [1] = test: Antiviral in vivo efficacy in dengue mouse model; conditions: oral gavage, 3 consecutive days, AG129 mice, qRT-PCR
Method: Antiviral In Vivo Efficacy in Dengue Mouse Model
AG129 mice (lacking IFN-α/β and IFN-γ receptors, (Schul, W. et al. 2007. J. Infect. Dis., 195, 665-74)) was obtained from Biological Resource Center (BRC), Singapore. Male and female AG129 mice aged 8 to 14 weeks (weighed 20-30 grams, n=6 per group) were used. Infection of DENV-2 (strain TSV01) was given intraperitoneally (500 μL, 1.4×10^7 pfu/mL). The DENV-2 strain TSVO1 was used in the mouse model and was propagated in C6/36 mosquito cells. Compounds were formulated (% w/w) in either 0.5% methylcellulose, 0.5% Tween and 99.0% deionized water or 20% polyethylene glycol (PEG300), 10% Cremophor RH40, and 70% 100 mM pH 3 citrate buffer (% v/v). Compounds were dosed immediately after infection through oral gavage for 3 consecutive days. Terminal blood sample (anticoagulant: K2EDTA) was obtained for viremia read-out by qRT-PCR as previously described (Santiago, G. A., et al. 2013. PLoS Negl. Trop. Dis., 7, e2311).

[2] = test system: Dengue 4 virus MY01-22713; test: High-content imaging cell-based flavivirus immunodetection (HCl-CFI) assay, Dengue 4; conditions: Dengue virus, A549, 48 h, read-out: Dengue 4 virus MY01-22713 in A549 using HCl [Inhibitor/IC50] Qualified AC50, A549 cells, 48 h, viral E protein expression
DENV-2 (strain TSV01) [3] = test: Antiviral in vivo efficacy in dengue mouse model; conditions: 180 mg/kg single dose, oral gavage, AG129 mice, qRT-PCR
[4] = test system: Dengue 1 virus MY97-10245; test: High-content imaging cell-based flavivirus immunodetection (HCl-CFI) assay, Dengue 1; conditions: Dengue virus, A549, 48 h, read-out: Dengue 1 virus MY97-10245 in A549 using HCl [Inhibitor/IC50] Qualified AC50
[5] = test system: Dengue 2 virus MY97-10340; test: High-content imaging cell-based flavivirus immunodetection (HCl-CFI) assay, Dengue 2; conditions: Dengue virus, A549, 48 h, read-out: Dengue 2 virus MY97-10340 in A549 using HCl [Inhibitor/IC50] Qualified AC50, A549 cells, MOI 0.3, 48 h, viral E protein expression
Summary of the method: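 A549 cells infected at MOI 0.3, treated with 3-fold, 10-point compound dilutions for 48 h. After paraformaldehyde fixation, viral E protein immunostained with 4G2 antibody and nuclei counterstained; imaged by high-content imaging. EC50 = concentration reducing E protein expression by 50%, from dose-response curves.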

[6] = test system: Dengue 3 virus MY05-34640-WT-C6/36; test: High-content imaging cell-based flavivirus immunodetection (HCl-CFI) assay, Dengue 3; conditions: Dengue virus, A549, 48 h, read-out: Dengue 3 virus MY05-34640-WT-C6/36 in A549 using HCl [Inhibitor/IC50] Qualified AC50

Compound | Log DENV-2 viremia reduction (DENV-2 (strain TSV01) [1]; 10 mg/kg b.i.d.) [Log] | Log DENV-2 viremia reduction (DENV-2 (strain TSV01) [1]; 30 mg/kg b.i.d.) [Log] | Log DENV-2 viremia reduction (DENV-2 (strain TSV01) [1]; 60 mg/kg q.d.) [Log] | Log DENV-2 viremia reduction (DENV-2 (strain TSV01) [1]; 100 mg/kg b.i.d.) [Log] | EC50 [2] [nM] | Log DENV-2 viremia reduction (DENV-2 (strain TSV01) [3]) [Log] | EC50 [4] [nM] | EC50 [5] [nM] | EC50 [6] [nM]
CC1(C)Cc2sc(NC(=O)Cc3ccc(S(N)(=O)=O)cc3)c(C#N)c2CN1CC1CCCCC1 [Example 71, N-(3-cyano-5-(cyclohexylmethyl)-6,6-dimethyl-4,5,6,7-tetrahydrothieno[3,2-c]pyridin-2-yl)-2-(4-sulfamoylphenyl)acetamide] | 0.51 | 1.45 | 1.54 | 3.0 | < 100 | 1.49 | < 100 | < 100 | < 100
N#Cc1c(NC(=O)Cc2ccc(S(N)(=O)=O)cc2)sc2c1CCN(Cc1cc(Cl)ccc1Cl)C2 [Example 109, N-(3-cyano-6-(2,5-dichlorobenzyl)-4,5,6,7-tetrahydrothieno[2,3-c]pyridin-2-yl)-2-(4-sulfamoylphenyl)acetamide] | – | – | – | 1.60 | 100 to 1000 | – | > 1000 | 100 to 1000 | 100 to 1000
